Patent publication US20120289612A1, “Composite Material and Method for Producing the Same” (HOUSE FOODS CORPORATION, priority 2010, published 2012)

System: acylase
Experiment: Enzyme addition: decomposition of capsaicin by acylase, HPLC
Format: physicochemical
Details: acylase 0.05 u/ml, 50 mM tris buffer, 37° C., capsaicin 0.0028%, relative to beginning of shaking
Method: Each of the samples obtained in Reference Example 2 and Reference Comparative Example 2 was diluted 10-fold with a 50 mM tris buffer (capsaicin concentration: 0.0028%). To this liquid, an acylase was added at a concentration of 0.05 u/ml. The mixture was shaken in a constant-temperature water bath at 37° C. to allow the reaction of the enzyme to proceed.
Meanwhile, as Reference Example, a capsaicin reagent (capsaicin content: 95% or more) manufactured by SIGMA was diluted with a 50 mM tris buffer such that the capsaicin concentration was the same as that (0.0028%) in Reference Example 2 and Reference Comparative Example 2. To this liquid, an acylase was added at a concentration of 0.05 u/ml. The mixture was shaken in a constant-temperature water bath at 37° C. in the same manner as in Reference Example 2 and Reference Comparative Example 2, to allow the reaction of the enzyme to proceed.
To 2 ml of each sample in which the reaction of the enzyme was allowed to proceed for 0 (at the beginning of the shaking) minutes, 30 minutes, or 60 minutes, 3 ml of water was added, and thus the volume thereof was adjusted to 5 ml. Moreover, 1 ml of 2.5 N NaOH was added thereto, followed by heating in boiling water at 100° C. for 10 minutes. After the heating, 20 ml of methanol was added thereto. […] For the HPLC measurement, a fluorescence detector was used. […]

## COc1cc(CNC(=O)CCCC/C=C/C(C)C)ccc1O [Reference Example, capsaicin]
  ratio of capsaicin remaining after the enzymatic reaction for 60 minutes: 2.0%
